Test results as given in PMC5511861, “DS16570511 is a small-molecule inhibitor of the mitochondrial calcium uniporter” (Cell Death Discovery, 2017).

Key:
[1] = target: T1, MCU (Homo sapiens, UniProt Q8NE86); test: MCU-dependent mitochondrial Ca2+ influx in HEK293A cells overexpressing human MCU; type: cell-based; conditions: pretreatment
T1 construct: expressed in transfected cells; host or cells: HEK293A cells, transient co-transfection with the mitochondria-targeted aequorin vector
T1 sequence (Q8NE86 51-351): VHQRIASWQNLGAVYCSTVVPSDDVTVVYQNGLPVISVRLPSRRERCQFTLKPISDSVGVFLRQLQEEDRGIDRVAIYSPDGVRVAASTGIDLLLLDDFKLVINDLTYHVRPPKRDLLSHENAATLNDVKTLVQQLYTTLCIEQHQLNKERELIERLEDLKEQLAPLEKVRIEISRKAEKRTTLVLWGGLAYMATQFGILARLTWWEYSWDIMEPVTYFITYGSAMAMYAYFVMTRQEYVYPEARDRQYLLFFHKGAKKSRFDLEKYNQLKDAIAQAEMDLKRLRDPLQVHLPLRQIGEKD
T1 sequence (Q9H4I9 48-107 partner limits assumed): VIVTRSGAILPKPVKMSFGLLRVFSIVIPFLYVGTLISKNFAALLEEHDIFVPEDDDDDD
Text: Next, to investigate the molecular component of the mitochondrial calcium uniporter, MCU-dependent and MICU-dependent Ca^2+ influx were examined. […] The MCU-dependent increment of Ca^2+ influx was blocked by the DS16570511 pretreatment (Figure 5b). We then investigated the effects of the inhibitor on the regulatory subunit MICU1. Previous studies have shown that MICU1 facilitates mitochondrial Ca^2+ uptake through the presence of a high Ca^2+ level.[11],[22]
Figure 5 DS16570511 inhibits mitochondrial Ca^2+ influx by MCU or MICU1. (a) Effect of overexpression of MCU or MICU1 on mitochondrial Ca^2+ influx in HEK293A cells. (b) Effect of DS16570511 on MCU-dependent mitochondrial Ca^2+ uptake in HEK293A cells. (c) Effect of DS16570511 on MICU1-dependent mitochondrial Ca^2+ uptake in HEK293A cells. […]
In order to evaluate mitochondrial Ca^2+ uptake activity by MCU or MICU1, HEK293A cells were transiently transfected with the mitochondria-targeted aequorin vector and pcDNA3.1 vector containing human Mcu (NCBI Reference Sequence: NM_138357.2) or Micu1 (NM_001195518.1). One day after the transfection, the luminescence levels were measured as described above. MCU- or MICU1-dependent activity was calculated by subtracting the luminescence level of cells transfected with empty vector from that of cells expressing MCU or MICU1, respectively.

[2] = system: Ca2+ uptake of rat heart mitochondria; test: Ca2+ uptake assay using isolated rat heart mitochondria (atomic absorbance spectrometer); type: biochemical; conditions: 100 μM CaCl2; read-out: IC50, inhibition of Ca2+ uptake of rat heart mitochondria
Procedure: We then asked whether DS16570511 inhibits Ca^2+ uptake in isolated mitochondria from animal heart. An atomic absorbance spectrometer-based detection method was employed to analyze intramitochondrial Ca^2+ levels. We prepared freshly isolated mitochondria from pig heart, and the mitochondria were incubated with 100 μM CaCl2.
Figure 3 DS16570511 inhibits Ca^2+ uptake in isolated heart mitochondria. (a) Effect of RuR on Ca^2+ uptake of pig heart mitochondria. […] Data are mean with S.E.M. from three independent samples. (b) Inhibition rate of RuR or DS16570511 on Ca^2+ uptake of pig heart mitochondria. Inhibition 0 or 100% is defined as a value of Ca^2+-untreated mitochondria or Ca^2+-treated mitochondria, respectively. Data are mean with S.E.M. from three independent samples. (c) Inhibition rate of RuR or DS16570511 on Ca^2+ uptake of rat heart mitochondria. Data are mean with S.E.M./variation from three or two independent samples for DS16570511 or RuR, respectively.
Mitochondria were isolated by using the mitochondria isolation kit and then dissolved in the swelling buffer. The protein concentration of the mitochondrial solution was 5 mg/ml. […] The solution was then diluted by water, and Ca^2+ concentration of the solution was measured by atomic absorbance spectrometer (Hitachi High-Technologies Corporation, Z-2710, Tokyo, Japan).

[3] = target: T2, mitochondrial calcium uniporter (Homo sapiens, UniProt Q8NE86); test: Ca2+ uptake of isolated mitochondria from HEK293A cells (aequorin luminescence); type: biochemical; design: isolated mitochondria from HEK293A cells were used; endogenous in cells; host or cells: mitochondria isolated from HEK293A cells stably expressing mitochondria-targeted aequorin; conditions: 100 μM Ca2+, 5 min preincubation; read-out: IC50, inhibition of Ca2+ uptake of isolated mitochondria from HEK293A cells
T2 sequence (Q8NE86 51-351): T1 sequence (Q8NE86 51-351)
T2 sequence (Q9H4I9 48-107 partner limits assumed): T1 sequence (Q9H4I9 48-107 partner limits assumed)
Procedure: Mitochondrial Ca^2+ uptake activity is regulated by cytosolic protein kinase signaling,[19] raising the possibility that HTS hits contained indirect inhibitors of the uniporter, such as inhibitors of cytosolic signaling. To examine the direct inhibitory effect of the compounds on the mitochondrial Ca^2+ uptake, isolated mitochondria from HEK293A cells were used. Ca^2+ uptake of the isolated mitochondria was observed as a rapid increase in the luminescence level after application of 100 μM Ca^2+ (Figure 2a).
Figure 2 DS16570511 inhibits Ca^2+ uptake in isolated mitochondria from HEK293A cells. (a) Representative raw data of Ca^2+ uptake in isolated mitochondria. (b) Effect of DS16570511 or Ru360 on mitochondrial Ca^2+ uptake. The area under the curve of temporal aequorin activities is used for calculation of inhibitory activities. Inhibition 0 or 100% is defined as a value of […], respectively. Data are mean with S.E.M. from three independent samples.
To monitor Ca^2+ uptake activity of isolated mitochondria, mitochondria were prepared from the cells (1×10^8 cells) stably expressing mitochondria-targeted aequorin by using a mitochondria isolation kit. […] The luminescence levels were detected as described above.

With `Cc1onc(-c2c(Cl)cccc2Cl)c1CNc1cccc(C(=O)c2cn(CCCC(=O)O)c3ccccc23)c1` [DS16570511] the “effect on MCU-dependent increment of mitochondrial Ca2+ influx” value [1] was “blocked”, the IC50 [2] was 25 µM and the IC50 [3] was 0.86 µM.
